Earlier results in patent publication US10441535B2, “Nutraceutical confectionary composition containing caffeine and L-theanine” (NeuroGum, LLC, priority 2015, dated 2019).

Details: human, in vivo

elimination half-life: 1 to 2 h
Substance: N-Ethyl-L-glutamine [L-theanine]
